Eleven compounds from US20230158151A1 (NURIX THERAPEUTICS, INC., priority 2021, published 2023) can be followed below.

SMILES strings stand for the structures.

A short description of this data set: Mouse PK Analysis (plasma LC/MS/MS, noncompartmental PK parameters). In kind it is in vivo. The arrangement: AUC(0-t): concentration or dose not given beside the values. As to conditions: mouse; mice, oral administration, plasma. On the procedure: Compounds 30 and 29 were administered to mice orally. After 6 hours or 24 hours, splenocytes cells were harvested. ITK was evaluated by Western blotting. Plasma concentrations were determined by LC/MS/MS. Plasma samples were protein precipitated by addition of 100 μl of acetonitrile containing 50 ng/ml of internal standard. The resulting mixture was vortexed and centrifuged at 4000 RPM for 5 minutes. An aliquot of the resultant supernatant (75 μl) was added to 75 μl of 0.1% formic acid in water to constitute the final sample for injection. Samples were injected on a Shimadzu Exion LC Binary Gradient AD Pump HLPC system connected to a Sciex QTRAP 6500+ mass spectrometer. Five μl of sample was injected onto a Waters Acquity UPLC BEH C18 column 130A (2.1×30 mm, […]) at 40° C. utilizing a flow rate of 700 μl/minute. Mobile Phase A was 0.1% formic acid in water and mobile phase B was 0.1% formic acid in acetonitrile. A linear gradient of 15-95% B over 1.0 minute was used. The mass spectrometer was operated in positive ion electrospray mode with multiple reaction monitoring for maximum sensitivity. Sciex Analyst software (version 1.6.3) was used for LC/MS/MS instrument control and acquisition. Compound concentration was determined against a standard curve of internal standard versus compound peak area ratio. Noncompartmental PK parameters were determined using Phoenix 32 software (version 8.2.0.4383) from Certara. Plasma concentrations from the LC/MS/MS analyses, dose, route of administration, and desired units were utilized for PK parameter calculations. […] FIG. 3C provides the concentration over time of compound 30 following in vivo oral administration in the 6 hour and 24 hour assays.
Cmax, Tmax and AUClast were all calculated using a WinNonLin Phoenix 64 v 8.2.0.4383. Using non-compartmental analysis, Tmax, Cmax and AUClast were determined as follows:
Tmax—Time of maximum observed concentration. Cmax—Maximum observed concentration, occurring at time Tmax, as defined above. AUClast—Area under the curve from the time of dosing to the time of the last measurable (positive) concentration (Tlast).

For orientation: AUC(0-t) means the area under the concentration-time curve up to a stated or last time point. Broadly, the Cmax is the maximum level reached in the sampled fluid or tissue. The Tmax is the time from dosing to the highest level. For `CN(C(=O)CCC1CCN(c2ccc(C3CCC(=O)NC3=O)cn2)CC1)c1ccc2cc(-c3n[nH]c4c3C[C@@H]3C(F)(F)[C@]3(C)C4)[nH]c2c1` (stereo partly drawn) [Compound 4, N-(2-((4aS,5aR)-5,5-difluoro-5a-methyl-1,4,4a,5,5a,6-hexahydrocyclopropa[f]indazol-3-yl)-1H-indol-6-yl)-3-(1-(5-(2,6-dioxopiperidin-3-yl)pyridin-2-yl)piperidin-4-yl)-N-methylpropanamide], the AUC(0-t) is 7.07 µM·h, the peak level (Cmax) was 2430 nM and the Tmax amounted to 1 h.
The matching figures for `CC1(C)CCc2c(-c3cc4ccc(N5CCC6(CCN(CC7CCN(c8ccc(C9CCC(=O)NC9=O)cn8)CC7)CC6)C5=O)cc4[nH]3)n[nH]c2C1` (stereo not drawn) [Compound 24, 3-(6-(4-((2-(2-(6,6-dimethyl-4,5,6,7-tetrahydro-1H-indazol-3-yl)-1H-indol-6-yl)-1-oxo-2,8-diazaspiro[4.5]decan-8-yl)methyl)piperidin-1-yl)pyridin-3-yl)piperidine-2,6-dione]: 1.43 µM·h, 610 nM and 6 h.
The matching figures for `CC1(C)CCc2c(-c3cc4ccc(C(=O)N5CCN(CC6CCN(c7ccc(C8CCC(=O)NC8=O)cn7)CC6)CC5)cc4[nH]3)n[nH]c2C1` (stereo not drawn) [Compound 26, 3-(6-(4-((4-(2-(6,6-dimethyl-4,5,6,7-tetrahydro-1H-indazol-3-yl)-1H-indole-6-carbonyl)piperazin-1-yl)methyl)piperidin-1-yl)pyridin-3-yl)piperidine-2,6-dione]: 36.5 µM·h, 7110 nM and 6 h.
As for `C[C@@]12Cc3[nH]nc(-c4cc5ccc(N6CCC7(CCN(CC8CCN(c9ccc(C%10CCC(=O)NC%10=O)cn9)CC8)CC7)C6=O)cc5[nH]4)c3C[C@@H]1C2(F)F` (stereo partly drawn) [Compound 28, 3-(6-(4-((2-(2-((4aS,5aR)-5,5-difluoro-5a-methyl-1,4,4a,5,5a,6-hexahydrocyclopropa[f]indazol-3-yl)-1H-indol-6-yl)-1-oxo-2,8-diazaspiro[4.5]decan-8-yl)methyl)piperidin-1-yl)pyridin-3-yl)piperidine-2,6-dione], the AUC(0-t) came out at 1.56 µM·h, the concentration peaked (Cmax) at 379 nM and the Tmax was 6 h.
For `C[C@@H](C(=O)N(C)c1ccc2cc(-c3n[nH]c4c3C[C@@H]3C(F)(F)[C@]3(C)C4)[nH]c2c1)N1CCN(CC2CCN(c3ccc(N4CCC(=O)NC4=O)cn3)CC2)CC1` [Compound 29, (S)—N-(2-((4aS,5aR)-5,5-difluoro-5a-methyl-1,4,4a,5,5a,6-hexahydrocyclopropa[f]indazol-3-yl)-1H-indol-6-yl)-2-(4-((1-(5-(2,4-dioxotetrahydropyrimidin-1(2H)-yl)pyridin-2-yl)piperidin-4-yl)methyl)piperazin-1-yl)-N-methylpropanamide] the same measures were 1.98 µM·h, 694 nM and 3.3 h.
The matching figures for `C[C@@H](C(=O)N(C)c1ccc2cc(-c3n[nH]c4c3CCC(C)(C)C4)[nH]c2c1)N1CCN(CC2CCN(c3ccc(N4CCC(=O)NC4=O)cn3)CC2)CC1` [Compound 31, (S)—N-(2-(6,6-dimethyl-4,5,6,7-tetrahydro-1H-indazol-3-yl)-1H-indol-6-yl)-2-(4-((1-(5-(2,4-dioxotetrahydropyrimidin-1(2H)-yl)pyridin-2-yl)piperidin-4-yl)methyl)piperazin-1-yl)-N-methylpropanamide]: 16.5 µM·h, 3080 nM and 2 h.
For `C[C@@H](C(=O)N(C)c1ccc2cc(-c3n[nH]c4c3CCC(C)(C)C4)[nH]c2c1)N1CCN(CC2CCN(c3ccc(C4CCC(=O)NC4=O)cn3)CC2)CC1` (stereo partly drawn) [Compound 32, (2S)—N-(2-(6,6-dimethyl-4,5,6,7-tetrahydro-1H-indazol-3-yl)-1H-indol-6-yl)-2-(4-((1-(5-(2,6-dioxopiperidin-3-yl)pyridin-2-yl)piperidin-4-yl)methyl)piperazin-1-yl)-N-methylpropanamide] the same measures were 22.7 µM·h, 1620 nM and 6 h.
Take `CC1(C)CCc2c(-c3cc4ccc(C(=O)N5CCC(CN6CCN(c7ccc(C8CCC(=O)NC8=O)nc7)CC6)CC5)cc4[nH]3)n[nH]c2C1` (stereo not drawn) [Compound 35, 3-(5-(4-((1-(2-(6,6-dimethyl-4,5,6,7-tetrahydro-1H-indazol-3-yl)-1H-indole-6-carbonyl)piperidin-4-yl)methyl)piperazin-1-yl)pyridin-2-yl)piperidine-2,6-dione]: the AUC(0-t) worked out at 12 µM·h, the peak level (Cmax) was 2000 nM and the Tmax worked out at 2 h.
For `CC1(C)CCc2c(-c3cc4ccc(C(=O)N5CCC(CN6CCN(c7ccc(C8CCC(=O)NC8=O)cc7)CC6)CC5)cc4[nH]3)n[nH]c2C1` (stereo not drawn) [Compound 37, 3-(4-(4-((1-(2-(6,6-dimethyl-4,5,6,7-tetrahydro-1H-indazol-3-yl)-1H-indole-6-carbonyl)piperidin-4-yl)methyl)piperazin-1-yl)phenyl)piperidine-2,6-dione] the same measures were 72 µM·h, 5400 nM and 2 h.
Regarding `CC1(C)CCc2c(-c3cc4ccc(C(=O)N5CCN(CC6CCN(c7ccc(C8CCC(=O)NC8=O)cc7)CC6)CC5)cc4[nH]3)n[nH]c2C1` (stereo not drawn) [Compound 38, 3-(4-(4-((4-(2-(6,6-dimethyl-4,5,6,7-tetrahydro-1H-indazol-3-yl)-1H-indole-6-carbonyl)piperazin-1-yl)methyl)piperidin-1-yl)phenyl)piperidine-2,6-dione], the AUC(0-t) amounted to 150 µM·h, the highest level (Cmax) was 11000 nM and the Tmax is 3.3 h.
The matching figures for `CC1(C)CCc2c(-c3cc4ccc(C(=O)N5CCC(CN6CCC(c7ccc(C8CCC(=O)NC8=O)cc7)CC6)CC5)cc4[nH]3)n[nH]c2C1` (stereo not drawn) [Compound 39, 3-(4-(1-((1-(2-(6,6-dimethyl-4,5,6,7-tetrahydro-1H-indazol-3-yl)-1H-indole-6-carbonyl)piperidin-4-yl)methyl)piperidin-4-yl)phenyl)piperidine-2,6-dione]: 3.9 µM·h, 300 nM and 6 h.
